Key:
Experiment in all cases: combination Emax (second highest fraction inhibited in the dose matrix, 72 h); higher = more inhibition; extreme values may be limits of the assay
[1] = test system: BFTC-905 (Bladder Carcinoma)
Method in brief: (§1)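 After 24 hours at 37°C and 5% CO2 in 1536-well plates, cells in DMEM/F12 or RPMI plus 10% FBS received two-drug dose matrices for 72 hours. Viability came from CellTiter-Glo 2.0 luminescence and was scaled as inhibition, anchored at 0 by vehicle wells and at 1 by blank wells. Combination Emax is taken as the second-highest inhibition in the matrix, and Bliss excess as the observed combination effect less EA + EB − EA·EB, with EA and EB the single-agent effects.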

[2] = test system: BL-41 (Burkitt's Lymphoma)
Method in brief: as §1

[3] = test system: CHP-212 (Neuroblastoma)
Method in brief: as §1

[4] = test system: ES8 (Ewing's Sarcoma)
Method in brief: as §1

[5] = test system: GR-ST (B-Lymphoblastic Leukemia)
Method in brief: as §1

[6] = test system: HDQ-P1 (Breast Carcinoma)
Method in brief: as §1

[7] = test system: HL-60 (Acute Myeloid Leukemia)
Method in brief: as §1

[8] = test system: KARPAS-45 (T-Lymphoblastic Leukemia)
Method in brief: as §1

[9] = test system: KCL-22 (Chronic Myelogenous Leukemia)
Method in brief: as §1

[10] = test system: KM12 (Colorectal Carcinoma)
Method in brief: as §1

[11] = test system: KYSE-180 (Esophageal Squamous Cell Carcinoma)
Method in brief: as §1

[12] = test system: L-540 (Hodgkin's Lymphoma)
Method in brief: as §1

[13] = test system: LN-18 (Glioblastoma)
Method in brief: as §1

[14] = test system: MEL-JUSO (Melanoma)
Method in brief: as §1

[15] = test system: MS751 (Cervical Carcinoma)
Method in brief: as §1

[16] = test system: NCI-H2818 (Mesothelioma)
Method in brief: as §1

[17] = test system: PANC-08-13 (Pancreatic Carcinoma)
Method in brief: as §1

[18] = test system: SR (Other Blood Carcinomas)
Method in brief: as §1

[19] = test system: SU-DHL-8 (B-Cell Non-Hodgkin's Lymphoma)
Method in brief: as §1

[20] = test system: SW1417 (Colorectal Carcinoma)
Method in brief: as §1

Row | Compound | combination Emax [1] | combination Emax [2] | combination Emax [3] | combination Emax [4] | combination Emax [5] | combination Emax [6] | combination Emax [7] | combination Emax [8] | combination Emax [9] | combination Emax [10] | combination Emax [11] | combination Emax [12] | combination Emax [13] | combination Emax [14] | combination Emax [15] | combination Emax [16] | combination Emax [17] | combination Emax [18] | combination Emax [19] | combination Emax [20]
1 | COc1cccc(OCCCN)c1-c1cc(Nc2cnc(C#N)cn2)n[nH]1 [Prexasertib] + Cc1cc2ncnn2cc1Nc1ncc2c(n1)n(C1CCOCC1)c(=O)n2C [AZD7648] (first compound max 1 µM, 7x7, partner max 10 µM) | 0.856 | 1 | 0.814 | 0.842 | 0.806 | 0.612 | 0.961 | 0.981 | 1 | 0.796 | 0.974 | 0.962 | 0.75 | 0.712 | 0.453 | 0.344 | 0.587 | 1 | 0.968 | 0.667
2 | Cc1cc2ncnn2cc1Nc1ncc2c(n1)n(C1CCOCC1)c(=O)n2C [AZD7648] + O=C(c1cc(Cc2n[nH]c(=O)c3ccccc23)ccc1F)N1CCN(C(=O)C2CC2)CC1 [Olaparib] (first compound max 10 µM, 7x7, partner max 10 µM) | 0.178 | 0.14 | 0.529 | 0.814 | 0.472 | 0.41 | 0.228 | 0.177 | 0.25 | 0.21 | 0.0923 | 0.396 | 0.132 | 0.104 | 0.197 | 0.328 | 0.102 | 0.514 | 0.448 | 0.165
3 | CN(CCO)CC[C@H](CSc1ccccc1)Nc1ccc(S(=O)(=O)NC(=O)c2ccc(N3CCC([C@@H](O)c4ccccc4-c4ccc(Cl)cc4)CC3)cc2)cc1S(=O)(=O)C(F)(F)F [AZD4320] + C=CCn1c(=O)c2cnc(Nc3ccc(N4CCN(C)CC4)cc3)nc2n1-c1cccc(C(C)(C)O)n1 [AZD1775] (first compound max 1 µM, partner max 1 µM) | 0.759 | 1 | 0.809 | 0.962 | 0.765 | 0.911 | 0.956 | 1 | 0.937 | 0.881 | 0.783 | 0.979 | 0.537 | 0.73 | 0.262 | 0.371 | 0.492 | 1 | 1 | 0.853
4 | CS(=O)(=O)CCNCc1ccc(-c2ccc3ncnc(Nc4ccc(OCc5cccc(F)c5)c(Cl)c4)c3c2)o1 [Lapatinib] + C[C@@H](Oc1cc(-c2cnn(C3CCNCC3)c2)cnc1N)c1c(Cl)ccc(F)c1Cl [Crizotinib] (first compound max 10 µM, 7x7, partner max 10 µM) | 0.963 | 0.96 | 0.988 | 1 | 0.988 | 0.936 | 0.941 | 1 | 0.979 | 0.93 | 0.952 | 0.911 | 0.965 | 0.912 | 0.987 | 0.59 | 0.802 | 1 | 0.694 | 0.669

From the supplement of paper PMC11061612
